These molecules were tested on HBsAg (assay: HBsAg assay (CLIA on supernatant of HepG2.2.15 cells)). Settings: Hepatitis B virus, HepG2.2.15, read-out: IC50 in HBsAg assay, HepG2.2.15 cells; HBsAg secretion reduced by 50% compared to the no drug control.
Assay type: cell-based, HBV
Description: (§1) HepG2.2.15 cells (Acs et al. Proc Natl Acad Sci USA, 84, (1987), 4641-4), a constitutively HBV-expressing cell line were cultured in DMEM+Glutamax-I medium (Invitrogen, Carlsbad, Calif., USA), supplemented with 10% fetal bovine serum (Invitrogen) and G418 (Invitrogen) at a final concentration of 200 mg/L and maintained in 5% CO2 at 37° C.
HepG2.2.15 cells were seeded in duplicate into white, 96-well plates at 1.5×10^4 cells/well. The cells were treated with a three-fold serial dilution series of the compounds in DMSO. The final DMSO concentration in all wells was 1% and DMSO was used as no drug control.
The HBsAg chemiluminescence immunoassay (CLIA) kit (Autobio Diagnostics Co., Zhengzhou, China, Catalog number: CL0310-2) was used to measure the levels of secreted HBV antigens semi-quantitatively. For the detection 50 μL/well culture supernatant was used and HBsAg was quantified using HBsAg chemiluminescence immunoassay (CLIA) kit (Autobio Diagnostics Co., Zhengzhou, China, Catalog number: CL0310-2), 50 μL of the supernatant was transferred to the CLIA assay plate and 50 μL of enzyme conjugate reagent was added into each well. The plates were sealed and gently agitated for 1 hour at room temperature. The supernatant-enzyme-mixture was discarded and wells were washed 6 times with 300 μL of PBS. The residual liquid was removed by plating the CLIA plate right side down on absorbent tissue paper. 25 μL of substrates A and B were added to each well. Luminance was measured using a luminometer (Mithras LB 940 Multimode Microplate Reader) after 10 minutes incubation. Dose-response curves were generated and the IC50 value was extrapolated by using the E-WorkBook Suite (ID Business Solutions Ltd., Guildford, UK). The IC50 was defined as the compound concentration at which HBsAg secretion was reduced by 50% compared to the no drug control.
The compounds according to formula I were tested for their capacity to inhibit HBsAg as described herein.
For `N#Cc1cccc2c1CCN(c1cnc(-c3ncccn3)nc1)C2` [Example 25, 2-(2-Pyrimidin-2-ylpyrimidin-5-yl)-3,4-dihydro-1H-isoquinoline-5-carbonitrile], the IC50 was 1190 nM. `Clc1ccc2c(c1)CCN(c1cnc(-c3ncccn3)nc1)C2` [Example 9, 6-Chloro-2-(2-pyrimidin-2-ylpyrimidin-5-yl)-3,4-dihydro-1H-isoquinoline] showed an IC50 of 2520 nM. `COC1CN(c2ccc3c(c2)CN(c2cnc(-c4ncccn4)nc2)CC3)C1` [Example 26, 7-(3-Methoxyazetidin-1-yl)-2-(2-pyrimidin-2-ylpyrimidin-5-yl)-3,4-dihydro-1H-isoquinoline] gave an IC50 of 1410 nM. In the case of `COc1ccc2c(c1)CCN(c1cnc(-c3ncccn3)nc1)C2` [Example 4, 6-Methoxy-2-(2-pyrimidin-2-ylpyrimidin-5-yl)-3,4-dihydro-1H-isoquinoline], the IC50 is reported as 5200 nM. For `c1cnc(-c2ncc(N3CCc4cc(C5CC5)ccc4C3)cn2)nc1` [Example 24, 6-Cyclopropyl-2-(2-pyrimidin-2-ylpyrimidin-5-yl)-3,4-dihydro-1H-isoquinoline], the IC50 was 1380 nM. Work on `c1cnc(-c2ncc(N3CCc4ccccc4C3)cn2)nc1` [Example 1, 2-(2-Pyrimidin-2-ylpyrimidin-5-yl)-3,4-dihydro-1H-isoquinoline] yielded an IC50 of 3170 nM. In the case of `COc1cc(Cl)cc2c1CCN(c1cnc(-c3ncccn3)nc1)C2` [Example 32, 7-Chloro-5-methoxy-2-(2-pyrimidin-2-ylpyrimidin-5-yl)-3,4-dihydro-1H-isoquinoline], the IC50 is reported as 251 nM. Work on `N#Cc1ccc2c(c1)CN(c1cnc(-c3ncccn3)nc1)CC2` [Example 20, 2-(2-Pyrimidin-2-ylpyrimidin-5-yl)-3,4-dihydro-1H-isoquinoline-7-carbonitrile] yielded an IC50 of 8640 nM. `Fc1cc(OCC2CC2)cc2c1CCN(c1cnc(-c3ncccn3)nc1)C2` [Example 21, 7-(Cyclopropylmethoxy)-5-fluoro-2-(2-pyrimidin-2-ylpyrimidin-5-yl)-3,4-dihydro-1H-isoquinoline] was tested, and the IC50 was 244 nM. For `COc1cc(F)c2c(c1)CN(c1cnc(-c3ncccn3)nc1)CC2` [Example 5, 5-Fluoro-7-methoxy-2-(2-pyrimidin-2-ylpyrimidin-5-yl)-3,4-dihydro-1H-isoquinoline], the IC50 was 355 nM. For `CN(C)c1cccc2c1CCN(c1cnc(-c3ncccn3)nc1)C2` [Example 30, N,N-Dimethyl-2-(2-pyrimidin-2-ylpyrimidin-5-yl)-3,4-dihydro-1H-isoquinolin-5-amine], the IC50 was 43300 nM. With `CCC1c2cc(OC)cc(F)c2CCN1c1cnc(-c2ncccn2)nc1` (stereo not shown) [Example 33, Ethyl-5-fluoro-7-methoxy-2-(2-pyrimidin-2-ylpyrimidin-5-yl)-3,4-dihydro-1H-isoquinoline] the IC50 was 790 nM. `COc1cc(F)c2c(c1)CN(c1cnc(-c3ncccn3)cn1)CC2` [Example 8, 5-Fluoro-7-methoxy-2-(5-pyrimidin-2-ylpyrazin-2-yl)-3,4-dihydro-1H-isoquinoline] showed an IC50 of 445 nM. With `Clc1ccc2c(c1)CN(c1cnc(-c3ncccn3)nc1)CC2` [Example 22, 7-Chloro-2-(2-pyrimidin-2-ylpyrimidin-5-yl)-3,4-dihydro-1H-isoquinoline] the IC50 was 2040 nM. `COc1cc2c(cc1OC)CN(c1cnc(-c3ncccn3)nc1)CC2` [Example 3, 6,7-Dimethoxy-2-(2-pyrimidin-2-ylpyrimidin-5-yl)-3,4-dihydro-1H-isoquinoline] gave an IC50 of 2320 nM. `CN(C)c1ccc2c(c1)CN(c1cnc(-c3ncccn3)nc1)CC2` [Example 16, N,N-Dimethyl-2-(2-pyrimidin-2-ylpyrimidin-5-yl)-3,4-dihydro-1H-isoquinolin-7-amine] showed an IC50 of 406 nM. `COc1cc2c(cn1)CCN(c1cnc(-c3ncccn3)nc1)C2` [Example 13, 7-Methoxy-2-(2-pyrimidin-2-ylpyrimidin-5-yl)-3,4-dihydro-1H-2,6-naphthyridine] gave an IC50 of 3700 nM. `c1cnc(-c2ncc(N3CCc4c(cccc4C4CC4)C3)cn2)nc1` [Example 29, 5-Cyclopropyl-2-(2-pyrimidin-2-ylpyrimidin-5-yl)-3,4-dihydro-1H-isoquinoline] was tested, and the IC50 was 6890 nM. `CNc1ccc2c(c1)CN(c1cnc(-c3ncccn3)nc1)CC2` [Example 18, N-Methyl-2-(2-pyrimidin-2-ylpyrimidin-5-yl)-3,4-dihydro-1H-isoquinolin-7-amine] was tested, and the IC50 was 4640 nM. `COc1cc(Cl)c2c(c1)CN(c1cnc(-c3ncccn3)nc1)CC2` [Example 31, 5-Chloro-7-methoxy-2-(2-pyrimidin-2-ylpyrimidin-5-yl)-3,4-dihydro-1H-isoquinoline] showed an IC50 of 68 nM. With `Fc1cc(OCC(F)F)cc2c1CCN(c1cnc(-c3ncccn3)nc1)C2` [Example 19, 7-(2,2-Difluoroethoxy)-5-fluoro-2-(2-pyrimidin-2-ylpyrimidin-5-yl)-3,4-dihydro-1H-isoquinoline] the IC50 was 255 nM. With `COc1cc(F)cc2c1CCN(c1cnc(-c3ncccn3)nc1)C2` [Example 6, 7-Fluoro-5-methoxy-2-(2-pyrimidin-2-ylpyrimidin-5-yl)-3,4-dihydro-1H-isoquinoline] the IC50 was 454 nM. Work on `c1cnc(-c2ncc(N3CCc4ccc(C5CC5)cc4C3)cn2)nc1` [Example 15, 7-Cyclopropyl-2-(2-pyrimidin-2-ylpyrimidin-5-yl)-3,4-dihydro-1H-isoquinoline] yielded an IC50 of 1690 nM. `COc1ccc2c(c1)CN(c1cnc(-c3ncccn3)nc1)CC2` [Example 14, 7-Methoxy-2-(2-pyrimidin-2-ylpyrimidin-5-yl)-3,4-dihydro-1H-isoquinoline] showed an IC50 of 990 nM. In the case of `COc1cc(F)c2c(c1)C(C)N(c1cnc(-c3ncccn3)nc1)CC2` (stereo not shown) [Example 7, 5-Fluoro-7-methoxy-1-methyl-2-(2-pyrimidin-2-ylpyrimidin-5-yl)-3,4-dihydro-1H-isoquinoline], the IC50 is reported as 315 nM. Work on `CN(C)c1ccc2c(c1)CCN(c1cnc(-c3ncccn3)nc1)C2` [Example 23, N,N-Dimethyl-2-(2-pyrimidin-2-ylpyrimidin-5-yl)-3,4-dihydro-1H-isoquinolin-6-amine] yielded an IC50 of 2220 nM. `COc1cc2c(cc1OC)CN(c1ccc(-c3ccccn3)nc1)CC2` [Example 10, 6,7-Dimethoxy-2-[6-(2-pyridyl)-3-pyridyl]-3,4-dihydro-1H-isoquinoline] gave an IC50 of 3120 nM. In the case of `Cc1ccc2c(c1)CN(c1cnc(-c3ncccn3)nc1)CC2` [Example 17, 7-Methyl-2-(2-pyrimidin-2-ylpyrimidin-5-yl)-3,4-dihydro-1H-isoquinoline], the IC50 is reported as 2010 nM. `Fc1cccc2c1CCN(c1cnc(-c3ncccn3)nc1)C2` [Example 27, 5-Fluoro-2-(2-pyrimidin-2-ylpyrimidin-5-yl)-3,4-dihydro-1H-isoquinoline] was tested, and the IC50 was 3030 nM. With `COc1ccc2c(n1)CN(c1cnc(-c3ncccn3)nc1)CC2` [Example 12, 2-Methoxy-7-(2-pyrimidin-2-ylpyrimidin-5-yl)-6,8-dihydro-5H-1,7-naphthyridine] the IC50 was 5770 nM. In the case of `NC(=O)COc1cc(F)c2c(c1)CN(c1cnc(-c3ncccn3)nc1)CC2` [Example 28, 2-[[5-Fluoro-2-(2-pyrimidin-2-ylpyrimidin-5-yl)-3,4-dihydro-1H-isoquinolin-7-yl]oxy]acetamide], the IC50 is reported as 8520 nM.

Same assay, conditions: read-out: IC50 in HBsAg assay; HepG2.2.15 cells; HBsAg secretion reduced by 50% compared to the no drug control
`Fc1ccc2c(c1)CN(c1cnc(-c3ncccn3)nc1)CC2` [Example 11, 7-Fluoro-2-(2-pyrimidin-2-ylpyrimidin-5-yl)-3,4-dihydro-1H-isoquinoline] showed an IC50 of 3890 nM. In the case of `Fc1ccc2c(c1)CN(c1cnc(-c3ncccn3)nc1)CC2` [Example 2, 7-Fluoro-2-(2-pyrimidin-2-ylpyrimidin-5-yl)-3,4-dihydro-1H-isoquinoline], the IC50 is reported as 22500 nM.

The molecules below were run on HBV DNA (assay: HBV DNA assay (real-time qPCR of extracellular HBV DNA, HepG2.2.15 cells)). Settings: Hepatitis B virus, 144 h, extracellular HBV DNA in supernatant, six days after treatment, read-out: IC50, anti HBV DNA production activity.
Assay type: cell-based
Description: as §1
The assay employs real-time qPCR (TaqMan) to directly measure extracellular HBV DNA copy number in the cell supernatant. HepG2.2.15 cells were plated in 96-well microtiter plates before treatment with complete medium (DMEM, Glutamax, 10% FBS, 1% Penicillin/Streptomycin, 250 μg/mL Genetycin, final DMSO concentration is 1%). Only the interior wells were utilized to reduce “edge effects” observed during cell culture, the exterior wells were filled with complete medium to help minimize sample evaporation. […]
`COc1cc(F)c2c(c1)CN(c1cnc(-c3ncccn3)cn1)CC2` [Example 8, 5-Fluoro-7-methoxy-2-(5-pyrimidin-2-ylpyrazin-2-yl)-3,4-dihydro-1H-isoquinoline] showed an IC50 of 292 nM.
